# Measured values as given in ChEMBL document CHEMBL5465560, “Selectivity Literature for EUbOPEN Chemogenomic Library” (2024).
# Key:
# [1] = biological target: Serine/threonine-protein kinase mTOR (Homo sapiens, UniProt P42345); test: Selectivity interaction (Kinase panel (KiNativ target engagement assay in Jurkat cells)) EUB0001635a MTOR; assay type: cell-based; conditions: Selectivity number of off-targets 0.0, Selectivity number of targets 233.0, Source Knowledge https://www.sciencedirect.com/science/article/pii/S2451945619300674?via%3Dihub, at 1 µM
# [2] = biological target: Serine/threonine-protein kinase VRK2 (Homo sapiens) (UniProt Q86Y07); test: Selectivity interaction (KinomeScan (DiscoverX)) EUB0000695a VRK2; conditions: at 100 nM
# [3] = biological target: Tyrosine-protein kinase ABL1 (Homo sapiens, UniProt P00519); test: Selectivity interaction (Kinase screening (Nanosyn)) EUB0000604a ABL1
# [4] = biological target: T1, Serine/threonine-protein kinase D1 (Homo sapiens) (UniProt Q15139); test: Selectivity interaction (Kinase screening (Nanosyn)) EUB0000604a PRKD1
# T1 sequence (whole entry): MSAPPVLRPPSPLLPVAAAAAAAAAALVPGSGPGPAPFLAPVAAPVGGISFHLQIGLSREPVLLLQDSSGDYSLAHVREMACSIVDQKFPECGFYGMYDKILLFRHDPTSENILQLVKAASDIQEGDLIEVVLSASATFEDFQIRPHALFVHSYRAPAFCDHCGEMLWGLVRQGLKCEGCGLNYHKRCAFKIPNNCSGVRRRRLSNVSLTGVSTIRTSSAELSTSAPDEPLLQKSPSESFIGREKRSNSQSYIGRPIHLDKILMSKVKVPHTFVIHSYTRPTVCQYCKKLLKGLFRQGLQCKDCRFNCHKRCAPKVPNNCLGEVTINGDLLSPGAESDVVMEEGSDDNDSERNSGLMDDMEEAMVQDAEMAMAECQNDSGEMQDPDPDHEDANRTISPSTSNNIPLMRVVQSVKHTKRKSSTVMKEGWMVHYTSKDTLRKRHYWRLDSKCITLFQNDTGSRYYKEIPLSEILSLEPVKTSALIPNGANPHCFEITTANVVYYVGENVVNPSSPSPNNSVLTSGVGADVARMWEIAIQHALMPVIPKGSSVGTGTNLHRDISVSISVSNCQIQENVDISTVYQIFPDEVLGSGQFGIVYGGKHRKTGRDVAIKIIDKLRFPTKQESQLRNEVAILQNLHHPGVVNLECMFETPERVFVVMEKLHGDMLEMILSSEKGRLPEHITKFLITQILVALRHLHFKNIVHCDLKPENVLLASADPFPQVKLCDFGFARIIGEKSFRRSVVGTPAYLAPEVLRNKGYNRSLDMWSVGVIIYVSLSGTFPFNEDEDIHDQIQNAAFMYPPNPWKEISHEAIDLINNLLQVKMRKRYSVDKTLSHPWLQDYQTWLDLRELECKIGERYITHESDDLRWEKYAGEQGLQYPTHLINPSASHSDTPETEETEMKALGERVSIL
# [5] = biological target: Dual specificity protein kinase CLK4 (Homo sapiens, UniProt Q9HAZ1); test: Selectivity interaction (Enzymatic assay) EUB0001550a CLK4
# [6] = biological target: T2, Ephrin type-B receptor 3 (Homo sapiens) (UniProt P54753); test: Selectivity interaction (ProQinase) EUB0000171b EPHB3
# T2 sequence (whole entry): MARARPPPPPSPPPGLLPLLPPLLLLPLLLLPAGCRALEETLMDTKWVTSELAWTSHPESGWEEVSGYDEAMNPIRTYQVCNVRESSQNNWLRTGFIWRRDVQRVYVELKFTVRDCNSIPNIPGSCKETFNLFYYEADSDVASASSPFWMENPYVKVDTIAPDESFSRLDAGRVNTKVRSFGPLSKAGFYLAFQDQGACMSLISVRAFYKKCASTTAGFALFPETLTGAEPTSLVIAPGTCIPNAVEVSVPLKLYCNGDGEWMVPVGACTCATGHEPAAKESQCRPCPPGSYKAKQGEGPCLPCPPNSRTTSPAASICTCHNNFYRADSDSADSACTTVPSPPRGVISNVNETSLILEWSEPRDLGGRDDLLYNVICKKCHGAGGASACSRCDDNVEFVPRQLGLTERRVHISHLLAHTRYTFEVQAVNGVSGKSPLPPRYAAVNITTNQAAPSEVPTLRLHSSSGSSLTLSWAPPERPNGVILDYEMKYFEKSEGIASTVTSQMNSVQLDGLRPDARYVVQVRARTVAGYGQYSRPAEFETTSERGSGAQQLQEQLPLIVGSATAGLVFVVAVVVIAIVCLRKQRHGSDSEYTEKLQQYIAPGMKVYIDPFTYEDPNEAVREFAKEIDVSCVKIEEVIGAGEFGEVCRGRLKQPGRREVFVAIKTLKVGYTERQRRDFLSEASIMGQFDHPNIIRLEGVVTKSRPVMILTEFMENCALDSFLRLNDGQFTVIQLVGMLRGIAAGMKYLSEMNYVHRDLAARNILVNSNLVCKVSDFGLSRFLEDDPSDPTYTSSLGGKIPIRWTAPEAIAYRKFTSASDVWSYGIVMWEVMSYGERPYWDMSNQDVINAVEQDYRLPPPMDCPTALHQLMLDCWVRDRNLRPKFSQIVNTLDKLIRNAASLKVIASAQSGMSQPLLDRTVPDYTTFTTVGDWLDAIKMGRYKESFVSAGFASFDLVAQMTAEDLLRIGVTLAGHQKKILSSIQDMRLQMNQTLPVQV
# [7] = biological target: T3, Dual specificity mitogen-activated protein kinase kinase 3 (Homo sapiens) (UniProt P46734); test: Selectivity interaction (ActivX KiNativ screen (ex vivo kinase selectivity in human PBMCs)) EUB0001619a MAP2K3; assay type: cell-based; conditions: PBMC, at 1 µM
# T3 sequence (whole entry): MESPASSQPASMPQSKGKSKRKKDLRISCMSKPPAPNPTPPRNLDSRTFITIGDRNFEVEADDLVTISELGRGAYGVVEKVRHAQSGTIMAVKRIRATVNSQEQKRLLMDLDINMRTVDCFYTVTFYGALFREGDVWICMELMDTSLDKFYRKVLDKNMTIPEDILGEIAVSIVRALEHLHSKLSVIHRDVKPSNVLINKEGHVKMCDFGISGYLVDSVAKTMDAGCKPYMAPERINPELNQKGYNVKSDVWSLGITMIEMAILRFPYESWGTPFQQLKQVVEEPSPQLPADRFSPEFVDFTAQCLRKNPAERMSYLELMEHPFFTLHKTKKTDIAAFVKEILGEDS
# [8] = biological target: Ribosomal protein S6 kinase alpha-6 (Homo sapiens, UniProt Q9UK32); test: Selectivity interaction (KinomeScan (DiscoverX)) EUB0001619a RPS6KA6; conditions: at 1 µM
# [9] = biological target: Platelet-derived growth factor receptor beta (Homo sapiens, UniProt P09619); test: Selectivity interaction (KinomeScan (DiscoverX)) EUB0000607a PDGFRB; conditions: at 10 µM
# SRSF protein kinase 1 = SRSF protein kinase 1 (Homo sapiens, UniProt Q96SB4); test: Selectivity interaction (Kinase panel (DSF assay)) EUB0001558a SRPK1
# [10] = biological target: Serine/threonine-protein kinase PLK3 (Homo sapiens, UniProt Q9H4B4); test: Selectivity interaction (KinomeScan (DiscoverX)) EUB0000655a PLK3; conditions: at 10 µM
# Serine/threonine-protein kinase PLK3, sequence (Q9H4B4 whole entry, looked up): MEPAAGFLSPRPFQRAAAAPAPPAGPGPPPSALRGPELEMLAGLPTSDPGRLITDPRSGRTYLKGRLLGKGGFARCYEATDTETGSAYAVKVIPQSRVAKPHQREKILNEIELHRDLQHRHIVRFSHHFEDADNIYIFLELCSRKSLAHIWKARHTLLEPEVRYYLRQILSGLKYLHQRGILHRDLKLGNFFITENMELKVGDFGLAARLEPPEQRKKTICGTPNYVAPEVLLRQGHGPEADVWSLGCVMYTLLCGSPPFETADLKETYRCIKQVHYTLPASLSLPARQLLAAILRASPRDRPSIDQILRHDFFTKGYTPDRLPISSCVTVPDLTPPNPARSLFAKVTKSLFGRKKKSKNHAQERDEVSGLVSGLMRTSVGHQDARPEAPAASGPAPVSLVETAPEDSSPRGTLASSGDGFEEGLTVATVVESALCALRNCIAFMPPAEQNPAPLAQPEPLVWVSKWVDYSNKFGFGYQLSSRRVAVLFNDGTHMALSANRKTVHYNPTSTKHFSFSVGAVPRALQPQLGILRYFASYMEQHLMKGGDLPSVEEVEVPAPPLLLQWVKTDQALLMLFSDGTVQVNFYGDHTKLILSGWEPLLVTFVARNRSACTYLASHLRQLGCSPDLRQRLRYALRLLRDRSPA
# SRSF protein kinase 1, sequence (Q96SB4 whole entry): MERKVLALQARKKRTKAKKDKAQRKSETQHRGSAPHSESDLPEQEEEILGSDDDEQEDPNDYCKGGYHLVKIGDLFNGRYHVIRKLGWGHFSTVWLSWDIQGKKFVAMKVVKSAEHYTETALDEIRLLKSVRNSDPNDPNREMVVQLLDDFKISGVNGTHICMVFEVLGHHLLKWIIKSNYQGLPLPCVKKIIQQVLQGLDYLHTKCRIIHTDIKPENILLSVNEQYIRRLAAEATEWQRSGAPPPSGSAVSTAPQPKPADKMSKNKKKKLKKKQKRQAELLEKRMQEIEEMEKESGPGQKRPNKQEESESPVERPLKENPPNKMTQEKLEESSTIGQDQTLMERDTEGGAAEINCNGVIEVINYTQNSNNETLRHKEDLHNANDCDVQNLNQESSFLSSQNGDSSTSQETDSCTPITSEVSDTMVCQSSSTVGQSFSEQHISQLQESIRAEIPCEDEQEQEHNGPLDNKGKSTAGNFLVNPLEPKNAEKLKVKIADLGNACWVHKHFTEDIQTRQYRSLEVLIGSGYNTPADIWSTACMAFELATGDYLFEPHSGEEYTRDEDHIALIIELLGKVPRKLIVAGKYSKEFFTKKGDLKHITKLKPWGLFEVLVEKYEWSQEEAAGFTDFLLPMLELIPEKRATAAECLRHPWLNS
# Serine/threonine-protein kinase VRK2 (Homo sapiens), sequence (Q86Y07 whole entry): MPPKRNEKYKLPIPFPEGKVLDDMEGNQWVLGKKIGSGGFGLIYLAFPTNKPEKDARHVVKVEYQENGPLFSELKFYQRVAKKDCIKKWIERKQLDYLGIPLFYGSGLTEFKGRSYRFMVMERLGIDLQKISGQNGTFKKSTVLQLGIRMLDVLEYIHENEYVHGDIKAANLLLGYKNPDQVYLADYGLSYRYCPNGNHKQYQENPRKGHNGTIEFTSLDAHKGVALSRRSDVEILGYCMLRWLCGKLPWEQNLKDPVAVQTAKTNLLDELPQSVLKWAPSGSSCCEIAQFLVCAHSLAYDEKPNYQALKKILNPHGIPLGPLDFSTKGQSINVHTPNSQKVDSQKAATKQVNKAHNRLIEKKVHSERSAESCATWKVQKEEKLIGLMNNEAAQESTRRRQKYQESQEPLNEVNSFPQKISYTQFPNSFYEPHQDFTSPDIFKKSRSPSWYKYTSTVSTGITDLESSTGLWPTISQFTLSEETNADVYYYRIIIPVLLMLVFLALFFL
# Ribosomal protein S6 kinase alpha-6, sequence (Q9UK32 whole entry): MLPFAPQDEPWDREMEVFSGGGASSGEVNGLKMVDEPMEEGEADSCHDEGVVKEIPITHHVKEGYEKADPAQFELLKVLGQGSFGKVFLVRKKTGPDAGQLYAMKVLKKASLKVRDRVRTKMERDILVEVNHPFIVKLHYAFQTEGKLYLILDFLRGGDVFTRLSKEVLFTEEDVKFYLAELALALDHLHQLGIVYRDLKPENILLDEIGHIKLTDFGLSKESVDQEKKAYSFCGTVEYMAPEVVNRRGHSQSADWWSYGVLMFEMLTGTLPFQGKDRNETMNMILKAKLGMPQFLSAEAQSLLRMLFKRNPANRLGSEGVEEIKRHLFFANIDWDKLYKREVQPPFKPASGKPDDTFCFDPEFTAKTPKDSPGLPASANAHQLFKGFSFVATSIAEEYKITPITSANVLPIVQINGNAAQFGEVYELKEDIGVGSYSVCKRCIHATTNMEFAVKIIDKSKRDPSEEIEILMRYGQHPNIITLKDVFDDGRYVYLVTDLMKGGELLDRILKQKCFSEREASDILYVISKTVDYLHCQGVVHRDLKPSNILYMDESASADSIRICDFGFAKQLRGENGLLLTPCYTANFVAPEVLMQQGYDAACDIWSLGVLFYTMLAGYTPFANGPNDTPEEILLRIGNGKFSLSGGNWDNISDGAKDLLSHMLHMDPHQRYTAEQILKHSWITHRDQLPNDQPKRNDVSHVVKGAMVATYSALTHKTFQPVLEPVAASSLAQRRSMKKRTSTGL
# Tyrosine-protein kinase ABL1, sequence (P00519 whole entry): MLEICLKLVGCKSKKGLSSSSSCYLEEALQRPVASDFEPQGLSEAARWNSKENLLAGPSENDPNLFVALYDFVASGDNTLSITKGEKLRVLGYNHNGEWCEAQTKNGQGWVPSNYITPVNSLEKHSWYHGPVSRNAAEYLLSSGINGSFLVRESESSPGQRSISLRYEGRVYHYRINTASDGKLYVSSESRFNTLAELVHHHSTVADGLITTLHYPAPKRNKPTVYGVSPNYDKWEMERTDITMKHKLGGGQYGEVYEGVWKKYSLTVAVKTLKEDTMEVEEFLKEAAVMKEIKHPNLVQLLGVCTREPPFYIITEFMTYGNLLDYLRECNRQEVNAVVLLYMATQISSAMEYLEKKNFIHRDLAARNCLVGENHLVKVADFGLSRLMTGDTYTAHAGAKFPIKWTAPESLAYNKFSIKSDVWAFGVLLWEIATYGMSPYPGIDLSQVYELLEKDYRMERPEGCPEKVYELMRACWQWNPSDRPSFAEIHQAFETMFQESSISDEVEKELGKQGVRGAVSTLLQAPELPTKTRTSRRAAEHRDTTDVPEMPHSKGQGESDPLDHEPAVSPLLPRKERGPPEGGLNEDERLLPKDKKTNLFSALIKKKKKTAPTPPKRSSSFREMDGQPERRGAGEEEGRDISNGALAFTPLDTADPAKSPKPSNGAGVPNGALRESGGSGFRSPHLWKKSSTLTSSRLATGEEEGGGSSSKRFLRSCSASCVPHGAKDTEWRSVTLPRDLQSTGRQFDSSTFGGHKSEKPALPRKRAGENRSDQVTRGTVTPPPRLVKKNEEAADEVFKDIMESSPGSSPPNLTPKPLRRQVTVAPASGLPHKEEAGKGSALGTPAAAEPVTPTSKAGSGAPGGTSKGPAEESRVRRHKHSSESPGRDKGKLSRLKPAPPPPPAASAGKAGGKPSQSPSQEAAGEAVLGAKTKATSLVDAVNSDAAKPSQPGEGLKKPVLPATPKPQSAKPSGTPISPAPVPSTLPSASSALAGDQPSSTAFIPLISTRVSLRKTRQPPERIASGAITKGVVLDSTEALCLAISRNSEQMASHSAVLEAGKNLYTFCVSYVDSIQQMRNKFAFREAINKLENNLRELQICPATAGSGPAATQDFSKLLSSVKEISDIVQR
# Dual specificity protein kinase CLK4, sequence (Q9HAZ1 whole entry): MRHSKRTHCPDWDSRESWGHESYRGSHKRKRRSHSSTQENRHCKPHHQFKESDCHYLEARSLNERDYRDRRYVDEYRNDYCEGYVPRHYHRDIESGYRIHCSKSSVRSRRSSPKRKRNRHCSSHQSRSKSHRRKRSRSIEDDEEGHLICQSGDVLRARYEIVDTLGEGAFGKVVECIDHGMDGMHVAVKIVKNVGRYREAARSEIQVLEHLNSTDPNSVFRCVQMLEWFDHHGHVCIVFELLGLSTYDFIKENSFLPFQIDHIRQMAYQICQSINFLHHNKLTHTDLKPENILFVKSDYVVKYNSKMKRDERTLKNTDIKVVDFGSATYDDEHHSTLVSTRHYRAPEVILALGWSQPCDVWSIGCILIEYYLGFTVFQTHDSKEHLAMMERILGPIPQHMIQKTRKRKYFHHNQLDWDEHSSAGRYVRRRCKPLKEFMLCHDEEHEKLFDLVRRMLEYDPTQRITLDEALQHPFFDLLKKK
structure (smiles),measurement,setting,value
C=CC(=O)Nc1ccc(C(=O)Nc2[nH]nc3c2CN(C(=O)N[C@H](CN(C)C)c2ccccc2)C3(C)C)cc1,% of engagement,[1],-11.9%
Cc1cc(F)c(C(=O)Nc2cccc(-c3nncn3C(C)C)n2)cc1-n1cnc(C2CC2)c1,% of control,[2],100%
Cc1cnc(Nc2ccc(F)cc2Cl)nc1-c1c[nH]c(C(=O)N[C@H](CO)c2cccc(Cl)c2)c1,% of inhibition,[3],3%
same,% of inhibition,[4],43%
CN(C)CC#Cc1ccc2[nH]c3c(c2c1)-c1nc(N)ncc1CCC3,IC50,[5],440 nM
C=CC(=O)Nc1cccc(C(=O)Nc2ccc(Nc3cc(-c4[nH]c(SC)nc4C)ccn3)cc2)c1,% of control,[6]; at 1 µM,106%
same,% of control,[6]; at 5 µM,108%
N#Cc1cccc(-c2c[nH]c3ncnc(N4CCOCC4)c23)c1,% of inhibition,[7],6%
same,% of control,[8],29%
CNC(=O)Nc1ccc(-c2nc(N3CC4CCC(C3)O4)c3cnn(C4CCC5(CC4)OCCO5)c3n2)cc1,% of control,[9],89%
CC(C)(O)[C@H](F)CN1Cc2cc(NC(=O)c3cnn4cccnc34)c(N3CCOCC3)cc2C1=O,dTM,SRSF protein kinase 1,1.1 K
CN(C)CCOc1ccc(-c2nc(-c3ccncc3)c(-c3ccc4c(c3)CC/C4=N\O)[nH]2)cc1,% of control,[10],94%
